Experimental data reported in ChEMBL document CHEMBL1140140, “4-[3-(4-cyclopropanecarbonylpiperazine-1-carbonyl)-4-fluorobenzyl]-2H-phthalazin-1-one: a novel bioavailable inhibitor of poly(ADP-ribose) polymerase-1” (J Med Chem, 2008).
Converted amounts (≈) assume the structure as drawn. The source made the active and inactive calls. The rule behind the calls is not given here.

Legend:
HeLa = test: Potentiation factor, ratio of IC50 for methyl methanesulfonate to IC50 for methyl methanesulfonate with 200 nM drug for inhibition of human HeLa B cells
[1] = Solubility of compound in 0.1 M phosphate buffer after 24 hrs by HPLC-UV method; format: physicochemical
[2] = molecular target: Poly [ADP-ribose] polymerase 1 (Homo sapiens, UniProt P09874)
Chain of Poly [ADP-ribose] polymerase 1 (P09874 whole entry): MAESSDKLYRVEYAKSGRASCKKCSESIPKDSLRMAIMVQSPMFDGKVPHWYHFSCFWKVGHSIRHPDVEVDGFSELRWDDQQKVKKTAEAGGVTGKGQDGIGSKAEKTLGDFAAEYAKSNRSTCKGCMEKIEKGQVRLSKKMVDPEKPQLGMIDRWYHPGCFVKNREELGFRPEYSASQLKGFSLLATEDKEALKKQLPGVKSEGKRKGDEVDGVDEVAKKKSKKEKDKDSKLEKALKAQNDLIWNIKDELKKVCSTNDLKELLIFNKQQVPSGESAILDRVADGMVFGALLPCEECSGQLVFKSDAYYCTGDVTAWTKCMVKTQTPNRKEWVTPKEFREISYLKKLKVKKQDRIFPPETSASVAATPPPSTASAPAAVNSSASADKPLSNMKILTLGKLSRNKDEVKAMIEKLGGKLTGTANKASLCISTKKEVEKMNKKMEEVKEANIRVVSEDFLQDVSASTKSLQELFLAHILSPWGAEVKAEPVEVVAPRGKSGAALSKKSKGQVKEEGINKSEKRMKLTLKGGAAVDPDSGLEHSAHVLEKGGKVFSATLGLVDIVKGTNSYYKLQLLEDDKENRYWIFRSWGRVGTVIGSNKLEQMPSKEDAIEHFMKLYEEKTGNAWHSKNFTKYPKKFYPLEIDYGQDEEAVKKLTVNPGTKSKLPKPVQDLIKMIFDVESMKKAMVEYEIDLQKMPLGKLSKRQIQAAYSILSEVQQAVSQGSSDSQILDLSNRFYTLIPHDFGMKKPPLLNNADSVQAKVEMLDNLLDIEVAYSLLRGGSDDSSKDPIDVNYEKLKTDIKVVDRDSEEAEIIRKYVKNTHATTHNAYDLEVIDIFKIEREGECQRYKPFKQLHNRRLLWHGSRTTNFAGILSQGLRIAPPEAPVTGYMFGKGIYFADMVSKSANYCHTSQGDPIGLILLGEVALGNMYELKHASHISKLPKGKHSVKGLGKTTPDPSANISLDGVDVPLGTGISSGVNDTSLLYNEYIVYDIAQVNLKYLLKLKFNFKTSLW

Rattus norvegicus [3] = test: AUC (0 to infinity) in rat at 15 mg/kg, iv and po; format: ADME, organism-based, Plasma; design: dose 15 mg/kg, route oral; details: in vivo
[4] = Oral bioavailability in rat at 15 mg/kg, po; format: ADME, organism-based; details: in vivo
[5] = Plasma concentration in mouse at 10 mg/kg, po after 60 mins; format: ADME, organism-based; design: dose 10 mg/kg, route oral
[6] = Half life in rat at 15 mg/kg, iv and po; format: ADME, organism-based; design: dose 15 mg/kg, route oral; details: in vivo
[7] = Plasma concentration in mouse at 10 mg/kg, po after 30 mins; format: ADME, organism-based; design: dose 10 mg/kg, route oral
Rattus norvegicus [8] = test: Volume of distribution in rat at 15 mg/kg, iv and po; format: ADME, organism-based; design: dose 15 mg/kg, route oral; details: in vivo
SW-620 [9] = test: Antitumor activity in human SW620 cells xenografted mouse assessed as days to double the relative tumor volume at 50 mg/kg, po once daily for 5 consecutive days; format: functional
Mus musculus = test: Toxicity in human SW620 cells xenografted mouse assessed as maximum mean body weight loss after 3 days; format: organism-based, SW-620; details: in vivo, 72 h
HCC1937 = test: Cytotoxicity against BRCA1-deficient human HCC1937 cells upto 4 uM after 7 to 14 days by clonogenic assay; format: functional, cell-based
SW-620 [10] = test: Potentiation of methyl methanesulfonate-induced growth inhibition of human SW620 cells after 4 days by sulforhodamine B assay; format: functional, cell-based
[11] = Half life in dog at 2.5 mg/kg, iv and 10 mg/kg, po; format: ADME, organism-based, Canis lupus familiaris; details: in vivo
Homo sapiens = species: Homo sapiens; test: Cytotoxicity against BRCA1-deficient human […] cells upto 4 uM after 7 to 14 days by clonogenic assay; format: functional, cell-based
[12] = Oral bioavailability in dog at 10 mg/kg, po; format: ADME, organism-based, Canis lupus familiaris; details: in vivo
[13] = Volume of distribution in dog at 2.5 mg/kg, iv and 10 mg/kg, po; format: ADME, organism-based, Canis lupus familiaris; details: in vivo
[14] = Clearance in dog at 2.5 mg/kg, iv and 10 mg/kg, po; format: ADME, organism-based, Canis lupus familiaris; details: in vivo
Canis familiaris = test: AUC (0 to infinity) in dog at 2.5 mg/kg, iv and 10 mg/kg, po; format: ADME, organism-based, Canis lupus familiaris, Plasma; details: in vivo

Row | SMILES | IC50 [2] [nM] | PF50 (HeLa) | also measured
1 | O=C(c1cc(Cc2n[nH]c(=O)c3ccccc23)ccc1F)N1CCN(C(=O)C2CCCO2)CC1 (configuration not stated) |  | 39.4 | solubility at 24 h [1]: 980 µg/mL (≈ 2110 µM)
2 | CCS(=O)(=O)N1CCN(C(=O)c2cc(Cc3n[nH]c(=O)c4ccccc34)ccc2F)CC1 | 8 | 4.9 | 
3 | O=C(c1cccc(Cc2n[nH]c(=O)c3ccccc23)c1)N1CCCN(Cc2ccccc2)CC1 | 18 | 2.2 | 
4 | O=C(c1cccc(Cc2n[nH]c(=O)c3ccccc23)c1)N1CCNCC1 |  | 3.7 | 
5 | O=C(c1cc(Cc2n[nH]c(=O)c3ccccc23)ccc1F)N1CCN(C(=O)C2CCOC2)CC1 (configuration not stated) | 2 | 29.8 | concentration at 1 h [5]: 150 ng/mL; concentration at 0.5 h [7]: 160 ng/mL
6 | CCCCN1CCN(C(=O)c2cc(Cc3n[nH]c(=O)c4ccccc34)ccc2F)CC1 | 5 | 6.4 | 
7 | O=C(c1cc(Cc2n[nH]c(=O)c3ccccc23)ccc1F)N1CCN(CCO)CC1 | 12 | 3.3 | 
8 | O=C(c1cc(Cc2n[nH]c(=O)c3ccccc23)ccc1F)N1CCN(C(=O)C2CCCCC2)CC1 | 15 | 11.1 | 
9 | CCN1CCN(C(=O)c2cc(Cc3n[nH]c(=O)c4ccccc34)ccc2F)CC1 | 6 | 7.7 | 
10 | Cn1nnc2c(C(N)=O)ncn2c1=O [TEMOZOLOMIDE] |  |  | Time (SW-620 [9]): 44 days; Activity (Mus musculus): 6%
11 | O=C(c1cc(Cc2n[nH]c(=O)c3ccccc23)ccc1F)N1CCN(CC2CC2)CC1 |  | 6.5 | 
12 | O=C(c1cc(Cc2n[nH]c(=O)c3ccccc23)ccc1F)N1CCN(C(=O)C2CC2)CC1 [OLAPARIB] |  | 25.8 | Activity (HCC1937): Active; Activity (SW-620 [10]): Dose-dependent effect; half-life [11]: 170 min; AUC (Rattus norvegicus [3]): 304 µg/min/mL; Activity (Homo sapiens): Active; bioavailability [12]: 100%; Vd [13]: 1.3 L/kg; bioavailability [4]: 100%; concentration at 1 h [5]: 590 ng/mL; clearance [14]: 5.4 mL/min/kg; half-life [6]: 53 min; concentration at 0.5 h [7]: 230 ng/mL; Vd (Rattus norvegicus [8]): 1.18 L/kg; AUC (Canis familiaris): 511 µg/min/mL
13 | CC(=O)N1CCCN(C(=O)c2cc(Cc3n[nH]c(=O)c4ccccc34)ccc2F)CC1 | 12 | 3.7 | 
14 | O=C(c1cc(Cc2n[nH]c(=O)c3ccccc23)ccc1F)N1CCCN(CCO)CC1 |  | 18 | 
15 | O=C(c1cc(Cc2n[nH]c(=O)c3ccccc23)ccc1F)N1CCN(c2ccccn2)CC1 | 2 | >40 | 
16 | O=C(c1cc(Cc2n[nH]c(=O)c3ccccc23)ccc1F)N1CCCN(C(=O)C2CC2)CC1 | 12 | 4.2 | 
17 | CCCN1CCN(C(=O)c2cc(Cc3n[nH]c(=O)c4ccccc34)ccc2F)CC1 | 6 | 7.3 | 
18 | O=C(c1cc(Cc2n[nH]c(=O)c3ccccc23)ccc1F)N1CCN(C(=O)C2CCCC2)CC1 | 2 | 11.8 | 
19 | O=C(c1cc(Cc2n[nH]c(=O)c3ccccc23)ccc1F)N1CCCNCC1 |  | 12.6 | 
20 | O=C(c1cc(Cc2n[nH]c(=O)c3ccccc23)ccc1F)N1CCCN(C(=O)N2CCOCC2)CC1 | 8 | 2.5 | 
21 | O=C(c1cc(Cc2n[nH]c(=O)c3ccccc23)ccc1F)N1CCN(c2ccccc2)CC1 |  | 5.2 | concentration at 1 h [5]: 310 ng/mL; concentration at 0.5 h [7]: 700 ng/mL
22 | CN1CCN(C(=O)c2cc(Cc3n[nH]c(=O)c4ccccc34)ccc2F)CC1 | 13 | 2.5 | 
23 | O=C(c1cc(Cc2n[nH]c(=O)c3ccccc23)ccc1F)N1CCN(C(=O)N2CCOCC2)CC1 |  | 8.4 | 
24 | O=C(c1ccccc1)N1CCN(C(=O)c2cc(Cc3n[nH]c(=O)c4ccccc34)ccc2F)CC1 | 6 | 8.2 | 
25 | O=C(c1cc(Cc2n[nH]c(=O)c3ccccc23)ccc1F)N1CCNCC1 | 5 | 8.6 | 
26 | O=C(c1cc(Cc2n[nH]c(=O)c3ccccc23)ccc1F)N1CCN(c2ncccn2)CC1 | 3 | >40 | 

Further lines, with some results ahead:

Row | IC50 [2] [nM] | SMILES | PF50 (HeLa) | also measured
27 | 8 | O=C(c1cccc(Cc2n[nH]c(=O)c3ccccc23)c1)N1CCN(C(=O)N2CCOCC2)CC1 | 2.3 | 
28 | 10 | O=C(c1cccc(Cc2n[nH]c(=O)c3ccccc23)c1)N1CCN(c2ccccn2)CC1 | 24.3 | 
29 | 11 | O=C(c1ccccc1)N1CCN(C(=O)c2cccc(Cc3n[nH]c(=O)c4ccccc34)c2)CC1 | 7.2 | 
30 | 5 | CCC(=O)N1CCN(C(=O)c2cc(Cc3n[nH]c(=O)c4ccccc34)ccc2F)CC1 | 24.4 | AUC (Rattus norvegicus [3]): 423 µg/min/mL; bioavailability [4]: 40%; concentration at 1 h [5]: 300 ng/mL; half-life [6]: 55 min; concentration at 0.5 h [7]: 670 ng/mL; Vd (Rattus norvegicus [8]): 0.91 L/kg
31 | 6 | CC(=O)N1CCN(C(=O)c2cc(Cc3n[nH]c(=O)c4ccccc34)ccc2F)CC1 | 7.97 | 
32 | 18 | O=C(c1cccc(Cc2n[nH]c(=O)c3ccccc23)c1)N1CCCN(CCO)CC1 | 5.4 | 
33 | 2 | O=C(c1cccc(Cc2n[nH]c(=O)c3ccccc23)c1)N1CCN(c2ncccn2)CC1 | >40 | concentration at 1 h [5]: 140 ng/mL; concentration at 0.5 h [7]: 300 ng/mL; solubility at 24 h [1]: 1 µg/mL (≈ 2.34 µM)
34 | 88 | CN1CCN(C(=O)c2cccc(Cc3n[nH]c(=O)c4ccccc34)c2)CC1 | 1.02 | 
35 | 20 | O=C(c1cccc(Cc2n[nH]c(=O)c3ccccc23)c1)N1CCCN(C(=O)N2CCOCC2)CC1 | 1.4 | 
36 | 12 | CCS(=O)(=O)N1CCN(C(=O)c2cccc(Cc3n[nH]c(=O)c4ccccc34)c2)CC1 | 4.6 | 
37 | 23 | CCS(=O)(=O)N1CCCN(C(=O)c2cccc(Cc3n[nH]c(=O)c4ccccc34)c2)CC1 | 1.4 | 
38 | 51 | O=C(c1cccc(Cc2n[nH]c(=O)c3ccccc23)c1)N1CCN(c2ccccc2)CC1 |  | 
39 | 39 | O=C(c1cccc(Cc2n[nH]c(=O)c3ccccc23)c1)N1CCN(CCO)CC1 | 1.8 | 
